# Laboratory results reported in the supplement of paper PMC4862054.
# System: HCC1599
# Experiment: normalised response (% of control), CellTox Green; higher = less cell death (100 = DMSO, 0 = benzethonium chloride kill control)
# Conditions: incubation time: 72 h
# Summary of the method: (§1)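 For each plate, 0.1 % DMSO was set to 100 and a positive kill control to 0. Breast cancer cell lines (20 µl suspension) were seeded into 384-well plates already holding compound at 5 concentrations in 10-fold steps over a 10,000-fold range chosen per compound, and incubated for 72 h. CellTox Green fluorescence at 485/520 nm was read before CellTiter-Glo luminescence, which followed 10 min at room temperature. Each value is the normalised signal at one concentration.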
row,SMILES,normalised response [%]
1,COc1ccc(-c2cc3c(C)nc(N)nc3n([C@H]3CC[C@H](OCCO)CC3)c2=O)cn1 (100 nM),90.3
2,CC/C(=C(\c1ccc(O)cc1)c1ccc(OCCN(C)C)cc1)c1ccccc1 [4-hydroxytamoxifen] (100 nM),114
3,O=C(Nc1c[nH]nc1-c1nc2ccc(CN3CCOCC3)cc2[nH]1)NC1CC1 [AT9283] (10 nM),115
4,CO[C@@H](C(=O)N1Cc2[nH]nc(NC(=O)c3ccc(N4CCN(C)CC4)cc3)c2C1)c1ccccc1 [Danusertib] (100 nM),102
5,O=S(=O)(c1cccc2cnccc12)N1CCCNCC1 [Fasudil] (500 nM),101
6,Nc1cccc2c1CN(C1CCC(=O)NC1=O)C2=O (stereo unspecified) [Lenalidomide] (100 nM),107
7,Nc1ccccc1NC(=O)c1ccc(CNc2nccc(-c3cccnc3)n2)cc1 [Mocetinostat] (100 nM),95.8
8,Cc1ccc(Nc2nccc(N(C)c3ccc4c(C)n(C)nc4c3)n2)cc1S(N)(=O)=O [Pazopanib] (100 nM),112
9,O=C(NC[C@H](O)CO)c1ccncc1Nc1ccc(I)cc1F [Pimasertib] (100 nM),118

# System: MDA-MB-468
# Experiment: as above
# Conditions: incubation time: 72 h
# Summary of the method: as §1
row,SMILES,normalised response [%]
1,COc1ccc(-c2cc3c(C)nc(N)nc3n([C@H]3CC[C@H](OCCO)CC3)c2=O)cn1 (100 nM),31
2,CC/C(=C(\c1ccc(O)cc1)c1ccc(OCCN(C)C)cc1)c1ccccc1 [4-hydroxytamoxifen] (100 nM),106
3,CO[C@@H](C(=O)N1Cc2[nH]nc(NC(=O)c3ccc(N4CCN(C)CC4)cc3)c2C1)c1ccccc1 [Danusertib] (100 nM),69.6
4,O=S(=O)(c1cccc2cnccc12)N1CCCNCC1 [Fasudil] (500 nM),78.7
5,Nc1cccc2c1CN(C1CCC(=O)NC1=O)C2=O (stereo unspecified) [Lenalidomide] (100 nM),102
6,Nc1ccccc1NC(=O)c1ccc(CNc2nccc(-c3cccnc3)n2)cc1 [Mocetinostat] (100 nM),104
7,O=C(NC[C@H](O)CO)c1ccncc1Nc1ccc(I)cc1F [Pimasertib] (100 nM),108

# System: MDA-MB-436
# Experiment: as above
# Conditions: incubation time: 72 h
# Summary of the method: as §1
row,SMILES,normalised response [%]
1,COc1ccc(-c2cc3c(C)nc(N)nc3n([C@H]3CC[C@H](OCCO)CC3)c2=O)cn1 (100 nM),97.9
2,CC/C(=C(\c1ccc(O)cc1)c1ccc(OCCN(C)C)cc1)c1ccccc1 [4-hydroxytamoxifen] (100 nM),108
3,O=C(Nc1c[nH]nc1-c1nc2ccc(CN3CCOCC3)cc2[nH]1)NC1CC1 [AT9283] (10 nM),103
4,CO[C@@H](C(=O)N1Cc2[nH]nc(NC(=O)c3ccc(N4CCN(C)CC4)cc3)c2C1)c1ccccc1 [Danusertib] (100 nM),98.2
5,Nc1cccc2c1CN(C1CCC(=O)NC1=O)C2=O (stereo unspecified) [Lenalidomide] (100 nM),107
6,Nc1ccccc1NC(=O)c1ccc(CNc2nccc(-c3cccnc3)n2)cc1 [Mocetinostat] (100 nM),96.4
7,Cc1ccc(Nc2nccc(N(C)c3ccc4c(C)n(C)nc4c3)n2)cc1S(N)(=O)=O [Pazopanib] (100 nM),94.2

# System: MFM-223
# Experiment: as above
# Conditions: incubation time: 72 h
# Summary of the method: as §1
row,SMILES,normalised response [%]
1,COc1ccc(-c2cc3c(C)nc(N)nc3n([C@H]3CC[C@H](OCCO)CC3)c2=O)cn1 (100 nM),96.2
2,CC/C(=C(\c1ccc(O)cc1)c1ccc(OCCN(C)C)cc1)c1ccccc1 [4-hydroxytamoxifen] (100 nM),106
3,O=C(Nc1c[nH]nc1-c1nc2ccc(CN3CCOCC3)cc2[nH]1)NC1CC1 [AT9283] (10 nM),53.1
4,CO[C@@H](C(=O)N1Cc2[nH]nc(NC(=O)c3ccc(N4CCN(C)CC4)cc3)c2C1)c1ccccc1 [Danusertib] (100 nM),104
5,O=S(=O)(c1cccc2cnccc12)N1CCCNCC1 [Fasudil] (500 nM),91.7
6,Nc1cccc2c1CN(C1CCC(=O)NC1=O)C2=O (stereo unspecified) [Lenalidomide] (100 nM),107
7,Nc1ccccc1NC(=O)c1ccc(CNc2nccc(-c3cccnc3)n2)cc1 [Mocetinostat] (100 nM),97.5
8,Cc1ccc(Nc2nccc(N(C)c3ccc4c(C)n(C)nc4c3)n2)cc1S(N)(=O)=O [Pazopanib] (100 nM),104
9,O=C(NC[C@H](O)CO)c1ccncc1Nc1ccc(I)cc1F [Pimasertib] (100 nM),107

# System: MCF-10A
# Experiment: as above
# Conditions: incubation time: 72 h
# Summary of the method: as §1
row,SMILES,normalised response [%]
1,COc1ccc(-c2cc3c(C)nc(N)nc3n([C@H]3CC[C@H](OCCO)CC3)c2=O)cn1 (100 nM),85.6
2,CC/C(=C(\c1ccc(O)cc1)c1ccc(OCCN(C)C)cc1)c1ccccc1 [4-hydroxytamoxifen] (100 nM),93
3,O=C(Nc1c[nH]nc1-c1nc2ccc(CN3CCOCC3)cc2[nH]1)NC1CC1 [AT9283] (10 nM),91.8
4,CO[C@@H](C(=O)N1Cc2[nH]nc(NC(=O)c3ccc(N4CCN(C)CC4)cc3)c2C1)c1ccccc1 [Danusertib] (100 nM),108
5,O=S(=O)(c1cccc2cnccc12)N1CCCNCC1 [Fasudil] (500 nM),95
6,Nc1cccc2c1CN(C1CCC(=O)NC1=O)C2=O (stereo unspecified) [Lenalidomide] (100 nM),77.9
7,Nc1ccccc1NC(=O)c1ccc(CNc2nccc(-c3cccnc3)n2)cc1 [Mocetinostat] (100 nM),93.1
8,Cc1ccc(Nc2nccc(N(C)c3ccc4c(C)n(C)nc4c3)n2)cc1S(N)(=O)=O [Pazopanib] (100 nM),72.7
9,O=C(NC[C@H](O)CO)c1ccncc1Nc1ccc(I)cc1F [Pimasertib] (100 nM),98.9

# System: CAL-120
# Experiment: as above
# Conditions: incubation time: 72 h
# Summary of the method: as §1
row,SMILES,normalised response [%]
1,COc1ccc(-c2cc3c(C)nc(N)nc3n([C@H]3CC[C@H](OCCO)CC3)c2=O)cn1 (100 nM),95.7
2,CC/C(=C(\c1ccc(O)cc1)c1ccc(OCCN(C)C)cc1)c1ccccc1 [4-hydroxytamoxifen] (100 nM),98.8
3,O=C(Nc1c[nH]nc1-c1nc2ccc(CN3CCOCC3)cc2[nH]1)NC1CC1 [AT9283] (10 nM),97.7
4,CO[C@@H](C(=O)N1Cc2[nH]nc(NC(=O)c3ccc(N4CCN(C)CC4)cc3)c2C1)c1ccccc1 [Danusertib] (100 nM),97.5
5,O=S(=O)(c1cccc2cnccc12)N1CCCNCC1 [Fasudil] (500 nM),100
6,Nc1cccc2c1CN(C1CCC(=O)NC1=O)C2=O (stereo unspecified) [Lenalidomide] (100 nM),97.4
7,Nc1ccccc1NC(=O)c1ccc(CNc2nccc(-c3cccnc3)n2)cc1 [Mocetinostat] (100 nM),93.3
8,Cc1ccc(Nc2nccc(N(C)c3ccc4c(C)n(C)nc4c3)n2)cc1S(N)(=O)=O [Pazopanib] (100 nM),95
9,O=C(NC[C@H](O)CO)c1ccncc1Nc1ccc(I)cc1F [Pimasertib] (100 nM),96.5

# System: Hs578T
# Experiment: as above
# Conditions: incubation time: 72 h
# Summary of the method: as §1
row,SMILES,normalised response [%]
1,COc1ccc(-c2cc3c(C)nc(N)nc3n([C@H]3CC[C@H](OCCO)CC3)c2=O)cn1 (100 nM),89.6
2,CC/C(=C(\c1ccc(O)cc1)c1ccc(OCCN(C)C)cc1)c1ccccc1 [4-hydroxytamoxifen] (100 nM),50.3
3,O=C(Nc1c[nH]nc1-c1nc2ccc(CN3CCOCC3)cc2[nH]1)NC1CC1 [AT9283] (10 nM),89.3
4,CO[C@@H](C(=O)N1Cc2[nH]nc(NC(=O)c3ccc(N4CCN(C)CC4)cc3)c2C1)c1ccccc1 [Danusertib] (100 nM),98.2
5,O=S(=O)(c1cccc2cnccc12)N1CCCNCC1 [Fasudil] (500 nM),104
6,Nc1cccc2c1CN(C1CCC(=O)NC1=O)C2=O (stereo unspecified) [Lenalidomide] (100 nM),109
7,Nc1ccccc1NC(=O)c1ccc(CNc2nccc(-c3cccnc3)n2)cc1 [Mocetinostat] (100 nM),112
8,Cc1ccc(Nc2nccc(N(C)c3ccc4c(C)n(C)nc4c3)n2)cc1S(N)(=O)=O [Pazopanib] (100 nM),107
9,O=C(NC[C@H](O)CO)c1ccncc1Nc1ccc(I)cc1F [Pimasertib] (100 nM),113

# System: DU-4475
# Experiment: as above
# Conditions: incubation time: 72 h
# Summary of the method: as §1
row,SMILES,normalised response [%]
1,COc1ccc(-c2cc3c(C)nc(N)nc3n([C@H]3CC[C@H](OCCO)CC3)c2=O)cn1 (100 nM),96.2
2,CC/C(=C(\c1ccc(O)cc1)c1ccc(OCCN(C)C)cc1)c1ccccc1 [4-hydroxytamoxifen] (100 nM),108
3,O=C(Nc1c[nH]nc1-c1nc2ccc(CN3CCOCC3)cc2[nH]1)NC1CC1 [AT9283] (10 nM),101
4,CO[C@@H](C(=O)N1Cc2[nH]nc(NC(=O)c3ccc(N4CCN(C)CC4)cc3)c2C1)c1ccccc1 [Danusertib] (100 nM),97.1
5,O=S(=O)(c1cccc2cnccc12)N1CCCNCC1 [Fasudil] (500 nM),100
6,Nc1cccc2c1CN(C1CCC(=O)NC1=O)C2=O (stereo unspecified) [Lenalidomide] (100 nM),101
7,Nc1ccccc1NC(=O)c1ccc(CNc2nccc(-c3cccnc3)n2)cc1 [Mocetinostat] (100 nM),99.1
8,Cc1ccc(Nc2nccc(N(C)c3ccc4c(C)n(C)nc4c3)n2)cc1S(N)(=O)=O [Pazopanib] (100 nM),101
9,O=C(NC[C@H](O)CO)c1ccncc1Nc1ccc(I)cc1F [Pimasertib] (100 nM),69.4

# System: BT-474
# Experiment: as above
# Conditions: incubation time: 72 h
# Summary of the method: as §1
row,SMILES,normalised response [%]
1,COc1ccc(-c2cc3c(C)nc(N)nc3n([C@H]3CC[C@H](OCCO)CC3)c2=O)cn1 (100 nM),94.4
2,CC/C(=C(\c1ccc(O)cc1)c1ccc(OCCN(C)C)cc1)c1ccccc1 [4-hydroxytamoxifen] (100 nM),105
3,O=C(Nc1c[nH]nc1-c1nc2ccc(CN3CCOCC3)cc2[nH]1)NC1CC1 [AT9283] (10 nM),102
4,CO[C@@H](C(=O)N1Cc2[nH]nc(NC(=O)c3ccc(N4CCN(C)CC4)cc3)c2C1)c1ccccc1 [Danusertib] (100 nM),99
5,O=S(=O)(c1cccc2cnccc12)N1CCCNCC1 [Fasudil] (500 nM),98.3
6,Nc1cccc2c1CN(C1CCC(=O)NC1=O)C2=O (stereo unspecified) [Lenalidomide] (100 nM),101
7,Nc1ccccc1NC(=O)c1ccc(CNc2nccc(-c3cccnc3)n2)cc1 [Mocetinostat] (100 nM),99.1
8,Cc1ccc(Nc2nccc(N(C)c3ccc4c(C)n(C)nc4c3)n2)cc1S(N)(=O)=O [Pazopanib] (100 nM),96.2
9,O=C(NC[C@H](O)CO)c1ccncc1Nc1ccc(I)cc1F [Pimasertib] (100 nM),98

# System: HDQ-P1
# Experiment: as above
# Conditions: incubation time: 72 h
# Summary of the method: as §1
row,SMILES,normalised response [%]
1,COc1ccc(-c2cc3c(C)nc(N)nc3n([C@H]3CC[C@H](OCCO)CC3)c2=O)cn1 (100 nM),88.6
2,CC/C(=C(\c1ccc(O)cc1)c1ccc(OCCN(C)C)cc1)c1ccccc1 [4-hydroxytamoxifen] (100 nM),87.3
3,O=C(Nc1c[nH]nc1-c1nc2ccc(CN3CCOCC3)cc2[nH]1)NC1CC1 [AT9283] (10 nM),115
4,CO[C@@H](C(=O)N1Cc2[nH]nc(NC(=O)c3ccc(N4CCN(C)CC4)cc3)c2C1)c1ccccc1 [Danusertib] (100 nM),109
